{"source": "paper PMC5365648", "about": "“Pharmacokinetics of the Novel Echinocandin CD101 in Multiple Animal Species” (Antimicrobial Agents and Chemotherapy, 2017)", "key": {"[1]": {"experiment": "Rat tissue distribution after i.v. bolus", "assay_type": "in vivo, Sprague-Dawley rats", "settings": "for Kp: rat, iv", "experimental": "In one of three rat studies reported here, a single 5-, 15-, or 45-mg/kg dose of CD101 was administered by slow i.v. bolus (∼3 min) to Sprague-Dawley rats (n = 3 to 5/dose). Blood samples (via jugular vein catheter [JVC]) were drawn for plasma processing at 0.083, 0.25, 0.5, 1, 2, 4, 8, 24, 48, 120, 168, and 240 h after dosing. In the second rat study, conducted to assess tissue distribution, a single 5-mg/kg dose of CD101 was administered by slow i.v. bolus (∼3 min) to male Sprague-Dawley rats (n = 3 animals/time point). Blood samples (via cardiac puncture) were collected for plasma processing predose and at 0.083, 0.5, 1, 2, 4, 8, 24, 48, 72, 96, and 120 h postdose. In parallel with blood collection, animals were euthanized, and tissues (liver, lungs, kidneys, heart, spleen, and brain) were excised and frozen prior to analysis. In the third rat study, conducted to assess excretion, a single 5-mg/kg dose of CD101 was administered by slow i.v. bolus (∼3 min) to bile duct-cannulated male Sprague-Dawley rats (n = 3). Bile samples were collected from each animal into prelabeled bile collection tubes predose and at 0 to 8, 8 to 24, 24 to 48, 48 to 72, 72 to 96, and 96 to 120 h postdose; urine samples were collected from each animal at the same time points pre- and postdose.\n(§1) For each of the pharmacokinetic studies, whole-blood samples (K3EDTA as anticoagulant) were collected and centrifuged within 30 min of collection. The resulting plasma was harvested and stored at −20°C until analysis. Tissue samples were homogenized by a bead-based homogenizer following the addition of deionized water to excised tissue in a 2:1 (vol/wt) ratio and stored at −20°C until analysis. Prior to analysis, plasma or homogenized tissue samples were quenched with acetonitrile (3:1, acetonitrile-plasma or tissue ratio) containing an appropriate internal standard (isotopically labeled d9-CD101 [mouse and rat] or a structural analog [dog, monkey, and chimpanzee]). Plasma and tissue homogenate concentrations (quantified against calibration standards processed the same way) were determined by reverse-phase, gradient liquid chromatography with tandem mass spectrometric detection (LC-MS/MS) using an AB-SCIEX API 3200Q/4000 mass spectrometry system. Calibration standard ranges were the following: 0.400 (lower limit of quantitation, [LLOQ]) to 200 μg/ml (CD101, mouse), 0.040 (LLOQ) to 10 μg/ml (anidulafungin, mouse), 0.002 (LLOQ) to 10 μg/ml (CD101, rat), 0.005 (LLOQ) to 10 μg/ml (anidulafungin, rat), 0.050 (LLOQ) to 10 μg/ml (CD101, dog), 0.020 (LLOQ) to 10 μg/ml (anidulafungin, dog), 0.010 (LLOQ) to 10 μg/ml (CD101, monkey), 0.001 (LLOQ) to 10 μg/ml (anidulafungin, monkey), 0.015 (LLOQ) to 10 μg/ml (CD101, chimpanzee), and 0.015 (LLOQ) to 10 μg/ml (anidulafungin, chimpanzee). When necessary, dilutions with blank matrix were made for samples that quantified above the upper limit of quantitation. The methods used in the analysis were qualified as fit for purpose: calibration standards were matrix matched with the exception that human plasma calibration standards were used to analyze chimpanzee plasma samples due to the rarity of blank chimpanzee plasma, and, for each analytical batch, triplicate calibration standards were included at the beginning, approximately in the middle, and at the end of the batch. Following analysis, quantitation was carried out by a calibration curve comprising the analyte/internal standard area ratio versus concentration. Analytical batch acceptance followed the general guidance that triplicate standards/quality controls be within ±20% for accuracy (percentage of nominal concentration) and ≤20% for precision (percent coefficient of variation).\n(§2) Pharmacokinetic parameters were calculated by noncompartmental analysis using Phoenix WinNonlin (version 6.3; Pharsight, Mountain View, CA) from either individual or mean (mouse) concentration-time profiles. An unpaired t test was used to compare mean exposures from male and female rats."}, "[2]": {"experiment": "Mouse pharmacokinetics, i.p. injection", "settings": "in vivo, ip, female ICR (CD-1) mice, plasma, LC-MS/MS, noncompartmental from mean profile, n = 3/time point", "experimental": "A single 1-mg/kg dose of CD101 or anidulafungin was administered by slow i.v. bolus (∼2 min) to male ICR (CD-1) mice (n = 3/group/time point). Blood samples (via cardiac puncture) were collected for plasma processing predose and at 0.083 (5 min), 0.5, 1, 4, 8, 24, 48, and 72 h postdose. PK profiles were generated based on mean results from the three animals sampled at each time point. In another study, a single 1-, 4-, or 16-mg/kg dose of CD101 was administered by i.p. injection to female ICR (CD-1) mice (n = 3/time point/dose), and blood samples (via cardiac puncture) were drawn for plasma processing at 1, 3, 6, 12, 24, 48, 72, and 96 h postdose.\nas §1, §2"}, "[3]": {"settings": "ref [10], cited from earlier work", "experimental": "The half-life of CD101 in human is about 3-fold longer (about 90 h) than that of anidulafungin (about 30 h) ([10]). It should be noted that 90 h is the effective half-life of CD101 (i.e., the half-life that covers the majority of the AUC), with a longer, later-phase half-life evident at lower concentration ..."}, "[4]": {"settings": "male Sprague-Dawley rats, single 5 mg/kg i.v. bolus"}, "[5]": {"settings": "male Sprague-Dawley rats, single 5 mg/kg i.v. bolus, t = 120 h, LC-MS/MS, n = 3/time point"}}, "note": "Where two headings read alike, the source gives them in different places. Starred links: 1 amine or outer side, 2 acyl side, 3 side chain; linkers in the order of their positions; H or OH if unused. Positions of bridges follow the written chain, without caps; N, C: chain ends. Non-standard residues stand in square brackets, D forms with d. Residues, ends and D or L forms follow the SMILES beside them. *: point of attachment. Orn(4R-OH,5R-OCH2CH2NMe3+) = C[N+](C)(C)CCO[C@@H](N[*:3])[C@H](O)C[C@H](N[*:1])C(=O)[*:2]; pTerphenylCO(4''-OnC5H11) = CCCCCOc1ccc(-c2ccc(-c3ccc(C(=O)*)cc3)cc2)cc1; hTyr(3S-OH,4S-OH) = N[C@H](C(=O)O)[C@H](O)[C@@H](O)c1ccc(O)cc1; Pro(3S-OH,4S-Me) = C[C@H]1CN[C@H](C(=O)O)[C@H]1O; Hyp = O=C(O)[C@@H]1C[C@@H](O)CN1"}
{"smiles": "CCCCCOc1ccc(-c2ccc(-c3ccc(C(=O)N[C@H]4C[C@@H](O)[C@@H](OCC[N+](C)(C)C)NC(=O)[C@@H]5[C@@H](O)[C@@H](C)CN5C(=O)[C@H]([C@@H](C)O)NC(=O)[C@H]([C@H](O)[C@@H](O)c5ccc(O)cc5)NC(=O)[C@@H]5C[C@@H](O)CN5C(=O)[C@H]([C@@H](C)O)NC4=O)cc3)cc2)cc1", "note": "[CD101] ({pTerphenylCO(4''-OnC5H11)}-[Orn(4R-OH,5R-OCH2CH2NMe3+)]T[Hyp][hTyr(3S-OH,4S-OH)]T[Pro(3S-OH,4S-Me)]; lactam 1-C)", "values": [{"measurement": "Tmax in brain tissue", "setting": "[1]; [4]", "value": 48, "unit": "h"}, {"measurement": "Tmax in heart tissue", "setting": "[1]; [4]", "value": 8, "unit": "h"}, {"measurement": "time of maximum concentration in plasma and tissues except heart and brain (first sampling time)", "setting": "[1]; [4]", "value": 5, "unit": "min"}, {"measurement": "Mean AUC0–t in brain tissue", "setting": "[1]; [5]", "value": 145, "unit": "µg·h/g"}, {"measurement": "Mean AUC0–t in kidney tissue", "setting": "[1]; [5]", "value": "1,100 μg · hr/g"}, {"measurement": "Kp", "setting": "[1]; male, Sprague-Dawley, kidney, lung, liver, spleen / plasma, rats, 5 mg/kg i.v., read-out: Tissue/plasma AUC ratio, fold higher in major organs (kidney, lung, liver, spleen) than in plasma", "value": "4 to 5"}, {"measurement": "Kp", "setting": "[1]; brain / plasma, male Sprague-Dawley rats, single 5 mg/kg i.v. bolus, t = 120 h, tissue homogenate, LC-MS/MS, n = 3/time point, read-out: Tissue/plasma AUC0–t ratio, brain", "value": 0.609}, {"measurement": "Kp", "setting": "[1]; heart / plasma, male Sprague-Dawley rats, single 5 mg/kg i.v. bolus, t = 120 h, tissue homogenate, LC-MS/MS, n = 3/time point, read-out: Tissue/plasma AUC0–t ratio, heart", "value": 1.09}, {"measurement": "Kp", "setting": "[1]; kidney, male Sprague-Dawley rats, single 5 mg/kg i.v. bolus, t = 120 h, tissue homogenate, LC-MS/MS, n = 3/time point, read-out: Tissue/plasma AUC0–t ratio, kidney", "value": 4.62}, {"measurement": "Kp", "setting": "[1]; liver, male Sprague-Dawley rats, single 5 mg/kg i.v. bolus, t = 120 h, tissue homogenate, LC-MS/MS, n = 3/time point, read-out: Tissue/plasma AUC0–t ratio, liver", "value": 4.14}, {"measurement": "Kp", "setting": "[1]; lung, male Sprague-Dawley rats, single 5 mg/kg i.v. bolus, t = 120 h, tissue homogenate, LC-MS/MS, n = 3/time point, read-out: Tissue/plasma AUC0–t ratio, lung", "value": 4.33}, {"measurement": "Kp", "setting": "[1]; spleen / plasma, male Sprague-Dawley rats, single 5 mg/kg i.v. bolus, t = 120 h, tissue homogenate, LC-MS/MS, n = 3/time point, read-out: Tissue/plasma AUC0–t ratio, spleen", "value": 3.87}, {"measurement": "AUC(0-inf)", "setting": "[2]; single 1 mg/kg i.p.", "value": 88.9, "unit": "µg·h/mL"}, {"measurement": "AUC(0-t)", "setting": "[2]; single 1 mg/kg i.p.", "value": 59.6, "unit": "µg·h/mL"}, {"measurement": "Cmax", "setting": "[2]; single 1 mg/kg i.p.", "value": 3970, "unit": "ng/mL"}, {"measurement": "Tmax", "setting": "[2]; single 1 mg/kg i.p.", "value": 1, "unit": "h"}, {"measurement": "half-life", "setting": "[2]; single 1 mg/kg i.p.", "value": 71.1, "unit": "h"}, {"measurement": "AUC(0-inf)", "setting": "[2]; single 4 mg/kg i.p.", "value": 313, "unit": "µg·h/mL"}, {"measurement": "AUC(0-t)", "setting": "[2]; single 4 mg/kg i.p.", "value": 245, "unit": "µg·h/mL"}, {"measurement": "Cmax", "setting": "[2]; single 4 mg/kg i.p.", "value": 13600, "unit": "ng/mL"}, {"measurement": "Tmax", "setting": "[2]; single 4 mg/kg i.p.", "value": 1, "unit": "h"}, {"measurement": "half-life", "setting": "[2]; single 4 mg/kg i.p.", "value": 44.5, "unit": "h"}, {"measurement": "AUC(0-inf)", "setting": "[2]; single 16 mg/kg i.p.", "value": 1200, "unit": "µg·h/mL"}, {"measurement": "AUC(0-t)", "setting": "[2]; single 16 mg/kg i.p.", "value": 902, "unit": "µg·h/mL"}, {"measurement": "Cmax", "setting": "[2]; single 16 mg/kg i.p.", "value": 52000, "unit": "ng/mL"}, {"measurement": "Tmax", "setting": "[2]; single 16 mg/kg i.p.", "value": 1.67, "unit": "h"}, {"measurement": "half-life", "setting": "[2]; single 16 mg/kg i.p.", "value": 60.8, "unit": "h"}, {"measurement": "half-life in human", "setting": "[3]; for CD101 the effective half-life (covers the majority of the AUC)", "value": "about 90 h"}, {"measurement": "half-life in human, fold longer than anidulafungin", "setting": "[3]", "value": "about 3 fold"}]}
